Results from patent publication US7452908B2, “Amide derivatives” (Banyu Pharmaceutical Co., Ltd., priority 1999, dated 2008).

Legend:
[1] = molecular target: T1, human m4 muscarinic acetylcholine receptor expressed in CHO cells (Homo sapiens, UniProt P08173); assay: Inhibition of [3H]-N-methylscopolamine binding to muscarinic m4 receptor; conditions: 0.2 nM [3H]-N-methylscopolamine
T1 construct: purchased Receptor Biology, Inc; host or cells: CHO cells
T1 sequence (P08173 1-479): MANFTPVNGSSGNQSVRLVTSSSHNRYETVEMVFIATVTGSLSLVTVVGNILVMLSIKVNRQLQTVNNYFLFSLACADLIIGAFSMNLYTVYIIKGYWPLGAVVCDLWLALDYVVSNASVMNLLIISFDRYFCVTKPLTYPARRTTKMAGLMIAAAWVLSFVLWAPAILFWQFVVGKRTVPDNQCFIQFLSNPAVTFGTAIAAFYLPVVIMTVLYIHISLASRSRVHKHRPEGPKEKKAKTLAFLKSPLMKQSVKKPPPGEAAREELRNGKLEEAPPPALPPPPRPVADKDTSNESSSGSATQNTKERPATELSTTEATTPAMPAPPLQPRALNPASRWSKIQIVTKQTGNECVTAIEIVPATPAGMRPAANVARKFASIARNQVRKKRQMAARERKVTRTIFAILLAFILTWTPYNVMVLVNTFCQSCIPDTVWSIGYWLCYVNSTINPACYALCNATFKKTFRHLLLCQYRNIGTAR
Experimental: (§1) These tests were performed according to a modification of the method of Hargreaves, et al. (Br. J. Pharmacol. 107: 494-501, 1992). Namely, muscarinic acetylcholine receptors of human m1, m2, m3, m4 and m5 expressed in CHO cells (Receptor Biology, Inc.) were incubated with 0.2 nM [^3H]-N-methylscopolamine (82Ci/mmol, New England Nuclear, Inc.) and a test compound to be tested in 0.5 ml of 50 mM Tris-HCl, 10 mM MgCl2, 1 mM EDTA solution (pH 7.4) for 120 minutes at room temperature (about 20-25° C.), followed by suction filtration over a glass filter (UniFilter plate-GF/C; Packard). Then the filter was washed four times with 1 ml of ice-cold Tris-HCl buffer and dried at 50° C. for an hour. After adding a scintillator (Microscinti 0; Packard), the radioactivity of [^3H]-N-methylscopolamine binding to the filter was counted with a microplate scintillation counter (TopCount™; Packard). Non-specific receptor binding of [^3H]-N-methylscopolamine was measured by adding 1 μM N-methylscopolamine.

[2] = molecular target: T2, human m3 muscarinic acetylcholine receptor expressed in CHO cells (Homo sapiens, UniProt P20309); assay: Inhibition of [3H]-N-methylscopolamine binding to muscarinic m3 receptor; conditions: for Ki: human m3 in CHO cells, 0.2 nM [3H]-N-methylscopolamine; for Selectivity m1/m3: ratio of Ki m1 to Ki m3; for Selectivity m2/m3: ratio of Ki m2 to Ki m3; for Selectivity m4/m3: ratio of Ki m4 to Ki m3; for Selectivity m5/m3: ratio of Ki m5 to Ki m3
T2 construct: purchased Receptor Biology, Inc; host or cells: CHO cells
Experimental: as §1

[3] = molecular target: T3, airway M3 receptor in isolated rat trachea (Rattus norvegicus, UniProt P08483); assay: Antagonism to the airway M3 receptor in isolated rat trachea (carbachol-induced contraction); type: cell-based; conditions: for Kb: isolated rat trachea, shift of carbachol dose-response curve; for Selectivity M2/M3: ratio of KB right atrium M2 to KB trachea M3
T3 construct: from tissue; host or cells: trachea of male SD rats
Experimental: The test was performed according to a conventional method. Male SD strain rats (weighing 300-500 g) were killed by exsanguination, and from each of them the trachea was isolated. Annular segments (2 mm wide) were cut out from the trachea and cut transversely at the anterior cartilage part to make open ring preparation. Each preparation was suspended in a Magnus tube filled with 5 ml of Krebs-Henseleit solution (gassed with 95% O2-5% CO2 and kept at 32° C.) with an initial tension of 1.0 g and a resting tension of 0.6 g. The tension of the preparation was recorded isometrically. After being equilibrated for an hour, the preparation was made to contract twice by treatment with 10^−4 M carbachol, and the second contraction induced by carbachol was used as the reference contraction. After washing the preparation with fresh solution to restore it to the base line, a test compound was administered thereto (or no treatment was given). Ten minutes later, carbachol (10^−8 to 10^−3 M) was cumulatively administered in three-fold increasing doses to obtain a dose-response curve. The dose-responsecurve was plotted by expressing responses as percentages based on the reference contraction of the preparation as 100%. The antagonistic potency (KB value) of the test compound was determined from the degree of shift of the dose-responsecurve attributable to the treatment with the test compound.

muscarinic M3 receptor [4] = assay: Antagonism to muscarinic M3 receptor in vivo: acetylcholine-induced airway resistance-increasing reaction in rats; set-up: species or system rat; conditions: for Selectivity M1/M3 (in vivo): ratio of ED50 M1 to ED50 M3, rats i.v.; for Selectivity M2/M3 (in vivo): ratio of ED50 M2 to ED50 M3, rats i.v.
Experimental: (§2) Male SD strain rats (weighing 300-500 g) were anesthetized with urethane (1 g/kg) and α-chloralose (50 mg/kg) administered intraperitoneally. The airway and carotid artery of each rat were isolated by laryngotomy and cannulated. The carotid artery cannula was used as the test compound administration route. After suppressing spontaneous respiration by hypodermic administration of succinylcholine (5 mg/body), the rats were transferred into Plethysmograph-box (PLYAN, Buxco) and artificially ventilated under the conditions of ventilation rate of 6 ml/kg per breath and respiration rate of 90 breaths/min., using a pulmotor for small animals (Model 681, Harvard Co.). Measurements of air rate and […], calculation of airway resistance and lung compliance and their recording were conducted with lung function analyzer (Model 6, Buxco). After about 10 minutes' stabilization period, the change in airway resistance induced by intravenous administration of acetylcholine (50 μg/kg) was measured twice at 5 minutes' interval. The change in airway resistance induced by the second acetylcholine administration was recorded as the pre-administration of the tested rat (pre-value). Five (5) minutes afterthe second acetylcholine-induced reaction measurement, the test compound or isotonic sodium chloride solution was intravenously administered. Five (5) minutes thereafter, acetylcholine was administered and whereby induced airway resistance change was measured. In this experiment, one-dosage evaluation was conducted per one animal of the tested rats. The changes in acetylcholine-induced airway resistance-increasing reaction (% of pre-value) caused by the tested compound and isotonic sodium chloride solution were calculated by the following Equation 1: […]
(§3) The inhibitory effect (inhibition ratio) of each test compound on the acetylcholine-induced airway resistance-increasing reaction was determined according to the following Equation 2.
(§4) Fifty (50)% inhibition dose (ED50; μg/kg) was calculated from the inhibition ratio of each dose of the tested compound.

muscarinic M3 receptor [5] = molecular target: T4, muscarinic M3 receptor (Rattus norvegicus, UniProt P08483); assay: as above; conditions: rat, iv, rats, acetylcholine (50 μg/kg) 5 minutes after test compound; read-out: ED50 Airway constriction M3
T4 construct: from tissue; host or cells: whole animal, male SD rats (in vivo)
Experimental: as §2, §3, §4

T3 sequence (P08483 whole entry): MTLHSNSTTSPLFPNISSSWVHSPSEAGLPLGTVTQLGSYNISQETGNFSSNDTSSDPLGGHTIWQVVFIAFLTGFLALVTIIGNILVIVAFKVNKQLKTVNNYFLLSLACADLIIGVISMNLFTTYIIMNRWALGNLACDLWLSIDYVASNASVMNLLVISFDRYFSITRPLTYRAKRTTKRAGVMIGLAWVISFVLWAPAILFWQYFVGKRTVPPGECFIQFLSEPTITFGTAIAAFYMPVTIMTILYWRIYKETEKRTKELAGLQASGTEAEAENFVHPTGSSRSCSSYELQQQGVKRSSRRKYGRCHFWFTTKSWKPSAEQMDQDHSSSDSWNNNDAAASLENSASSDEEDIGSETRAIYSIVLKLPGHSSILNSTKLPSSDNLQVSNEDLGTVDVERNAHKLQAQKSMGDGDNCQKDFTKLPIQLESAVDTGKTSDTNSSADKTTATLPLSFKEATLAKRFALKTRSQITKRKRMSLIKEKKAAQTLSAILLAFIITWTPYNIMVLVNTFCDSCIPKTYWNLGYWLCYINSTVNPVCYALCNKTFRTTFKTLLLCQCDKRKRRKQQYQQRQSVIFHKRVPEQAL
T2 sequence (P20309 whole entry): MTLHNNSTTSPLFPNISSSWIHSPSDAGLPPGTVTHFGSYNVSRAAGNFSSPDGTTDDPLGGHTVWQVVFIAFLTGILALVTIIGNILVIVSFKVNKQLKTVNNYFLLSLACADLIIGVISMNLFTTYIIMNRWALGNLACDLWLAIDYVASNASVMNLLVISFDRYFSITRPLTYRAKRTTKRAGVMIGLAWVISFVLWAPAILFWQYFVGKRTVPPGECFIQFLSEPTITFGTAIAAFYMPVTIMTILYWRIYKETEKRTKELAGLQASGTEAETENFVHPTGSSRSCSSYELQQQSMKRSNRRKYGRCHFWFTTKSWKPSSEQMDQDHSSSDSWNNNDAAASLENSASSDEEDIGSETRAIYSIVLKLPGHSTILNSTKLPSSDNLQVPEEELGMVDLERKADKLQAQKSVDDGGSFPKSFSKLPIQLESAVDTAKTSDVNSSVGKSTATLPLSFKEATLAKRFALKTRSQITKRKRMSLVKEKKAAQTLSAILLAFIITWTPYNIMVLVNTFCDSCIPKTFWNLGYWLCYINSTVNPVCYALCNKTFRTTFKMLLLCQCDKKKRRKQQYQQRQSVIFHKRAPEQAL
T4 sequence (P08483 whole entry): as the sequence (P08483 whole entry) above

| Ki [1] [nM] | Ki [2] [nM] | Selectivity m1/m3 [2] [times] | Selectivity m2/m3 [2] [times] | Selectivity m4/m3 [2] [times] | Selectivity m5/m3 [2] [times] | Kb [3] [nM] | Selectivity M2/M3 [3] [times] | ED50 (muscarinic M3 receptor [5]) [µg/kg] | Structure (SMILES) | Selectivity M1/M3 (in vivo) (muscarinic M3 receptor [4]) [times] | Selectivity M2/M3 (in vivo) (muscarinic M3 receptor [4]) [times] |
| --- | --- | --- | --- | --- | --- | --- | --- | --- | --- | --- | --- |
| 18 | 0.38 | 370 | 89 | 47 | 84 | 2.3 | 70 | 15 | O=C(CCNC(=O)CNC(=O)CC(c1ccccc1)(c1ccccc1)c1ccccc1)NC[C@H]1CCCN(CC2CCCCC2)C1 [Example 12, N-{2-(3-{((3R)-1-cyclohexylmethyl-3-piperidyl)methyl}amino-3-oxopropyl)amino-2-oxoethyl}-3,3,3-triphenyloropanamide] | >200 | 100 |
| 140 | 3.2 | >780 | 250 | 44 | 500 | 0.71 | 58 | 2.1 | CC[N+]1(CC)CCC[C@H](CNC(=O)[C@H]2CCCN2C(=O)[C@@H]2C[C@@H](O)CN2C(=O)CC(c2ccccc2)(c2ccccc2)c2ccccc2)C1.[Cl-] [Example 133, (3R)-1,1-diethyl-3-({({(2R)-1-({(2S,4R)-4-hydroxy-1-(3,3,3-triphenylpropanoyl)-2-pyrrolidinyl}carbonyl)-2-pyrrolidinyl}carbonyl)amino}methyl)piperidinium chloride] | >143 | 54 |
